Like-named read-outs stand apart in the source and are kept apart here.
Experiments:
Recombinant human DPP-IV = Recombinant human DPP-IV (Homo sapiens, UniProt P27487); experiment: DPP-IV assay in vitro (H-Ala-Pro-AFC fluorescence); assay type: biochemical; details: 30 min pre-incubation, H-Ala-Pro-AFC 50 μM
Description: DPP-IV Assay Solutions of test compounds in varying concentrations (10^−5 mol/L, 10^−6 mol/L, 10^−7 mol/L, 10^−8 mol/L, 10^−9 mol/L, 10^−10 mol/L, 10^−11 mol/L, and 10^−12 mol/L) were prepared in dimethyl sulfoxide (DMSO) and then diluted into assay buffer comprising: 10 mM Tris-HCl pH 8.0, 0.2 M NaCl, and 0.1% BSA. Recombinant human DPP-IV (7.8 ng/ml final concentration) was added to the dilutions and pre-incubated for 30 mins at room temperature before the reaction was initiated with H-Ala-Pro-AFC (50 μM final concentration). The total volume of the reaction mixture was 100 μl.
Inhibition constants (IC50) were calculated by GraphPad Prism.

DPP-4 = molecular target: T1, DPP-4 (Mus musculus, UniProt P28843); experiment: Plasma DPP-4 activity in mice after oral dosing; assay type: in vivo, ICR mice; details: read-out: DPP-4 Relative activity %; for activity at 1 mg/kg: oral 1 mg/kg; for activity at 3 mg/kg: mice plasma, oral 3 mg/kg
T1 construct: Blood sample was processed to obtain plasma; from tissue; host or cells: plasma of male ICR mice
T1 sequence (P28843 37-760 limits assumed): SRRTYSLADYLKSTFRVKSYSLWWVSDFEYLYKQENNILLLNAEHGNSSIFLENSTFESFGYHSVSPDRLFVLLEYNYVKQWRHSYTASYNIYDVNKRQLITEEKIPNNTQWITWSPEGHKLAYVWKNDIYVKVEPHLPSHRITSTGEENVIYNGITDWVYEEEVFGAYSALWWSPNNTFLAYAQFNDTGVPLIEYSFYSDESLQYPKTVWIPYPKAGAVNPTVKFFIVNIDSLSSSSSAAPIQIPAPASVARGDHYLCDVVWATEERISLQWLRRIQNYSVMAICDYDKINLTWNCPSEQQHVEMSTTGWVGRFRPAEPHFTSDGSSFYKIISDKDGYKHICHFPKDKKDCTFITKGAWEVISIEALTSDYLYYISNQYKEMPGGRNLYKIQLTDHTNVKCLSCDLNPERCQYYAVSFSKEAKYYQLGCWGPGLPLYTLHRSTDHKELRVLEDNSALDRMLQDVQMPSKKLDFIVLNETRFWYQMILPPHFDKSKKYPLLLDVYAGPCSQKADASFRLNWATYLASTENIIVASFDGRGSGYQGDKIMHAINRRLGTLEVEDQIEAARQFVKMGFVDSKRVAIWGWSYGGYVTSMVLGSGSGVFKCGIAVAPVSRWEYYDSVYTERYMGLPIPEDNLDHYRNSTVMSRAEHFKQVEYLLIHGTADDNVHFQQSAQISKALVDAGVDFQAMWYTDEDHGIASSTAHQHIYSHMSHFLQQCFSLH
Description: Some of the exemplary compounds were tested in mice to assess inhibition of DPP-4 activity via plasma DPP-4 activity. Male ICR mice (25-30 g) were used for this study. All the mice were fasted at least 3 hours before study. Mice (n=6/group) received vehicle or at least one of the exemplary compounds by oral gavage. The dosing solutions were 0.15 mg/ml for the 3 mg/kg. Dosing volume was 20 mL/kg of body weight for all doses. The vehicle was distilled water. […] Blood sample was processed to obtain plasma (2000 g, 5 min, 4° C.) within 15 min after sampling.
Plasma was collected and tested by fluoremetry. Before the testing, 80 mM MgCl2 buffer was added into the 5 uL serum samples and pre-incubation for 5 minutes at room temperature, then […] of 0.1 mM substrate Gly-Pro-AMC and 20 μL of buffer were added into them. The fluorescence of the mixture was measured every 3 minutes after mixing (excitation at 380 nm; emission at 460 nm). After 6 times of measurements, a time-fluorescence cure was obtained. The slope of the curve would be the activity of DPP-4 in serum. The DPP-4 activity before administration was 100%. The relative activity of DPP-4 in serum was calculated using the formula below:
Relative DPP-4activity=DPP-4activity after dosing/DPP-4activity before dosing×100%.

[1] = Table 4 Test 1, mice plasma, 1 h after dosing
[2] = Table 4 Test 1, mice plasma, 2 h after dosing
[3] = Table 4 Test 1, mice plasma, 4 h after dosing
[4] = Table 4 Test 1, mice plasma, 6 h after dosing
[5] = Table 4 Test 1, mice plasma, 9 h after dosing

Chain of Recombinant human DPP-IV (P27487 whole entry): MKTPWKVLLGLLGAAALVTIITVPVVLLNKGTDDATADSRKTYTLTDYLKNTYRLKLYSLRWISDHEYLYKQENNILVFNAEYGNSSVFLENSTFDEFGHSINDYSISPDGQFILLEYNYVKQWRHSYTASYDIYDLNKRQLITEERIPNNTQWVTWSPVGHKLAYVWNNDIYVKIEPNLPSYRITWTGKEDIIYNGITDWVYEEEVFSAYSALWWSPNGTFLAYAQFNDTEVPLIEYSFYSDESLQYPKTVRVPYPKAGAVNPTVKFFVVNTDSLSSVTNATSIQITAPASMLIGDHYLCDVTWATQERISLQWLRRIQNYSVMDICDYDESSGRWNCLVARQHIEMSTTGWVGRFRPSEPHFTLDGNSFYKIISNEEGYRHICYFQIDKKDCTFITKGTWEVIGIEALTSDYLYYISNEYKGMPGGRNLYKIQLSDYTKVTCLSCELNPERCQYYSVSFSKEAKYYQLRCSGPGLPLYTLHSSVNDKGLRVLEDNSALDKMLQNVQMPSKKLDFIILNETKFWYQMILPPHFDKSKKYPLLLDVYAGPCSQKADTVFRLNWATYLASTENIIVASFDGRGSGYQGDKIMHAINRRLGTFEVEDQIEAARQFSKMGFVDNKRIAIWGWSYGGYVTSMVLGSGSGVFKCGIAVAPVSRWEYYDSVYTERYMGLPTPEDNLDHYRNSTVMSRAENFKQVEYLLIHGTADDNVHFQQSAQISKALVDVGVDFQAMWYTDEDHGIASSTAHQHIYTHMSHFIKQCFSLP

Question: With `Cc1nc(-c2ccn3c4c(nc3c2)C[C@H](c2cc(F)c(F)cc2F)[C@@H](N)C4)no1` [Example 4, (7R,8S)-3-(5-Methyl-1,2,4-oxadiazol-3-yl)-7-(2,4,5-trifluorophenyl)-6,7,8,9-tetrahydrobenzo[4,5]imidazo[1,2-a]pyridin-8-amine] as the compound, how does the IC50 (Recombinant human DPP-IV) read?
Answer: The IC50 was 1.9 nM.

Question: What about the activity at 1 mg/kg (DPP-4; Table 4 Test 2, mice plasma, 1 h after dosing) of the same compound?
Answer: Its activity at 1 mg/kg is 11.5 ± 1.8%.

Question: And the activity at 1 mg/kg (DPP-4; Table 4 Test 2, mice plasma, 2 h after dosing)?
Answer: Its activity at 1 mg/kg is 9 ± 1.3%.

Question: And the activity at 1 mg/kg (DPP-4; Table 4 Test 2, mice plasma, 4 h after dosing)?
Answer: The activity at 1 mg/kg was 10.2 ± 1.8%.

Question: What about the activity at 1 mg/kg (DPP-4; Table 4 Test 2, mice plasma, 6 h after dosing) of the same compound?
Answer: The activity at 1 mg/kg was 10.4 ± 1.8%.

Question: And the activity at 1 mg/kg (DPP-4; Table 4 Test 2, mice plasma, 9 h after dosing)?
Answer: The activity at 1 mg/kg was 11.6 ± 1.6%.

Question: What about the activity at 3 mg/kg (DPP-4; 1 h after dosing) of the same compound?
Answer: The activity at 3 mg/kg was 24.4 ± 2.8%.

Question: And the activity at 3 mg/kg (DPP-4; 2 h after dosing)?
Answer: The activity at 3 mg/kg was 21.7 ± 1.7%.

Question: What about the activity at 3 mg/kg (DPP-4; 3 h after dosing) of the same compound?
Answer: The activity at 3 mg/kg was 20.4 ± 2%.

Question: What about the activity at 3 mg/kg (DPP-4; 5 h after dosing) of the same compound?
Answer: Its activity at 3 mg/kg is 28.3 ± 2.3%.

Question: Which IC50 (Recombinant human DPP-IV) does the source give for `Cc1noc(-c2ccn3c4c(nc3c2)C[C@H](c2cc(F)c(F)cc2F)[C@@H](N)C4)n1` [Example 6, (7R,8S)-3-(3-Methyl-1,2,4-oxadiazol-5-yl)-7-(2,4,5-trifluorophenyl)-6,7,8,9-tetrahydrobenzo[4,5]imidazo[1,2-a]pyridin-8-amine] here?
Answer: Its IC50 is 1.9 nM.

Question: What about the activity at 1 mg/kg (DPP-4; [1]) of the same compound?
Answer: Its activity at 1 mg/kg is 16.9 ± 1.4%.

Question: What about the activity at 1 mg/kg (DPP-4; [2]) of the same compound?
Answer: Its activity at 1 mg/kg is 15.9 ± 1.9%.

Question: And the activity at 1 mg/kg (DPP-4; [3])?
Answer: Its activity at 1 mg/kg is 15.7 ± 1%.

Question: And the activity at 1 mg/kg (DPP-4; [4])?
Answer: Its activity at 1 mg/kg is 16 ± 1.2%.

Question: What about the activity at 1 mg/kg (DPP-4; [5]) of the same compound?
Answer: The activity at 1 mg/kg was 19.5 ± 1.8%.

Question: What does the source list for `Cn1nnc(-c2ccn3c4c(nc3c2)C[C@H](c2cc(F)c(F)cc2F)[C@@H](N)C4)n1` [Example 11, (7R,8S)-3-(2-methyl-2H-tetrazol-5-yl)-7-(2,4,5-trifluorophenyl)-6,7,8,9-tetrahydrobenzo[4,5]imidazo[1,2-a]pyridin-8-amine]?
Answer: IC50 (Recombinant human DPP-IV): 3 nM; activity at 1 mg/kg (DPP-4; Table 3, mice plasma, 1 h after dosing): 9 ± 1.4%; activity at 1 mg/kg (DPP-4; Table 3, mice plasma, 2 h after dosing): 11.5 ± 1.1%; activity at 1 mg/kg (DPP-4; Table 3, mice plasma, 4 h after dosing): 10.9 ± 2.8%; activity at 1 mg/kg (DPP-4; Table 3, mice plasma, 6 h after dosing): 11.5 ± 0.5%; activity at 1 mg/kg (DPP-4; Table 3, mice plasma, 9 h after dosing): 10 ± 1.3%; activity at 1 mg/kg (DPP-4; Table 3, mice plasma, 12 h after dosing): 11 ± 2%; activity at 1 mg/kg (DPP-4; Table 3, mice plasma, 24 h after dosing): 14.5 ± 2.2%; activity at 1 mg/kg (DPP-4; [1]): 9 ± 1.4%; activity at 1 mg/kg (DPP-4; [2]): 11.5 ± 1.1%; activity at 1 mg/kg (DPP-4; [3]): 10.9 ± 2.8%; activity at 1 mg/kg (DPP-4; [4]): 11.5 ± 0.5%; activity at 1 mg/kg (DPP-4; [5]): 10 ± 1.3%; activity at 1 mg/kg (DPP-4; Table 4 Test 1, mice plasma, 12 h after dosing): 11 ± 2.2%; activity at 1 mg/kg (DPP-4; Table 4 Test 1, mice plasma, 24 h after dosing): 14.5 ± 2.2%

Source: US20150284385A1, “CERTAIN DIPEPTIDYL PEPTIDASE INHIBITORS” (SHANGHAI FOCHON PHARMACEUTICAL CO LTD, priority 2012, published 2015)
